The values below come from paper PMC7956155, “Design and Evaluation of Peptide Dual-Agonists of GLP-1 and NPY2 Receptors for Glucoregulation and Weight Loss with Mitigated Nausea and Emesis” (Journal of Medicinal Chemistry, 2021).

Series [1] concerns the target T1, human GLP-1R (Homo sapiens, UniProt P43220). Briefly: Taglite fluorescent competitive binding assay at GLP-1R against GLP-1red. The settings on record: CHO-K1 cells, tracer GLP-1red 4 nM, duplicate independent runs.
The target in series [2] is T2, rat GLP-1R (Rattus norvegicus, UniProt P32301).
T2 sequence (P32301 22-463): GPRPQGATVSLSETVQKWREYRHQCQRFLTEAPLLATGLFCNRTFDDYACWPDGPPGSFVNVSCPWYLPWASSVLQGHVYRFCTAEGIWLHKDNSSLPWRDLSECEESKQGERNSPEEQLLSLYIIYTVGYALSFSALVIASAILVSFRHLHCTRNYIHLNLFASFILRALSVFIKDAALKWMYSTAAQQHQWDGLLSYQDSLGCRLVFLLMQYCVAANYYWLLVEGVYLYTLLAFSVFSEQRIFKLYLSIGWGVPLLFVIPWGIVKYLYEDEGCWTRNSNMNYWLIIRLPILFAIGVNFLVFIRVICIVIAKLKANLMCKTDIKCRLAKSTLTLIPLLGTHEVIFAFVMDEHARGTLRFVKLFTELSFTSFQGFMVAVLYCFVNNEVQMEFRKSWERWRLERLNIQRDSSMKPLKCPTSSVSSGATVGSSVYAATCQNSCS
Format: cell-based.

Series [3] deals with T1, human GLP-1R. Put plainly: cAMP FRET reporter (H188) agonism assay at human GLP-1R in HEK293 cells. Format: cell-based.
Experimental: HEK293 cells stably expressing the human GLP-1R and virally transduced with H188 for FRET assays were obtained from Novo Nordisk A/S (Bagsvaerd, Denmark).[67] […] Post-transfection, cells were incubated for 48 h in fresh culture media. For real-time kinetic assays of FRET, cells were harvested and resuspended in 21 mL of SES buffer and plated at 196 μL per well. […] FRET assays and data analysis were performed using a FlexStation 3 microplate reader as described.
Cells were then transduced for 16 h with H188 virus at a density of 60 000 cells/well under conditions in which the multiplicity of infection was equivalent to 25 viral particles per cell. The culture media was removed and replaced by 200 μL/well of a standard extracellular saline (SES) solution supplemented with 11 mM glucose and 0.1% BSA. […] Real-time kinetic assays of FRET were performed using a FlexStation 3 microplate reader equipped with excitation and emission light monochromators (Molecular Devices, Sunnyvale, CA). […] The emission intensities were the averages of 15 excitation flashes for each time point per well. […] Prism 8.1 was also used for nonlinear regression analysis to quantify dose–response relationships.
Series [4] in a line: Pooled rat liver microsomal stability assay. Particulars: pooled male Sprague–Dawley rat liver microsomes 1 mg/mL, 30 μM peptide, 1 mM NADPH, pH 7.4, 37 °C, over 120 min, HPLC UV 206 nm, n = 3; standard error in brackets. Format: in vitro ADME. A general note: Liver microsomes are a subcellular fraction often used to study metabolism.
Experimental: Pooled liver microsomes from a male Sprague–Dawley rat were purchased from Sigma-Aldrich. Microsomal incubations were performed in triplicate as independent data sets in 3 mM MgCl2, 25 mM KH2PO4 buffer at pH 7.4. Assays were performed at 500 μL total volume with 30 μM peptide, 1 mM NADPH, and 1 mg/mL pooled liver microsomes. Kanamycin at 200 μM was used as an internal standard. Pooled rat liver microsome assay showing data collected by HPLC. […] Assays were conducted at 37 °C with gentle rocking. […] Data were fit utilizing eqs 3–6.
Series [5] addresses T3, human Y2-R (Homo sapiens, UniProt P49146).
T3 sequence (P49146 1-381): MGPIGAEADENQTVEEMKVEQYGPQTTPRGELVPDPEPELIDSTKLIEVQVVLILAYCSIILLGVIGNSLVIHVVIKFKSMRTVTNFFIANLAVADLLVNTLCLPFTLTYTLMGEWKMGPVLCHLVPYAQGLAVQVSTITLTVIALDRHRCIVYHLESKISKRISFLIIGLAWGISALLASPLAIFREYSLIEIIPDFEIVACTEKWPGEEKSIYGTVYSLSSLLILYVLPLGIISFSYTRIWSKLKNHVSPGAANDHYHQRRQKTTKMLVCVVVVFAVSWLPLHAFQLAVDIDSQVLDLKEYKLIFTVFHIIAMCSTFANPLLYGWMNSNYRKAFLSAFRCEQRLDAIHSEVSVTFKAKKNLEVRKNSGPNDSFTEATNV
Put plainly: cAMP FRET reporter (H188) assay at Y2-R: counteraction of adenosine-stimulated cAMP in HEK293 cells. The class given is cell-based. The settings on record: HEK cells with H188 biosensor, recombinant human Y2-R and endogenous A2b receptors; 2 μM adenosine; 95% CI in brackets, at least triplicate; read-out: Y2-R agonist action (IC50), decrease of adenosine-raised cAMP.

Series [6] concerns the target T4, human Y1-R (Homo sapiens, UniProt P25929).
T4 sequence (P25929 1-384): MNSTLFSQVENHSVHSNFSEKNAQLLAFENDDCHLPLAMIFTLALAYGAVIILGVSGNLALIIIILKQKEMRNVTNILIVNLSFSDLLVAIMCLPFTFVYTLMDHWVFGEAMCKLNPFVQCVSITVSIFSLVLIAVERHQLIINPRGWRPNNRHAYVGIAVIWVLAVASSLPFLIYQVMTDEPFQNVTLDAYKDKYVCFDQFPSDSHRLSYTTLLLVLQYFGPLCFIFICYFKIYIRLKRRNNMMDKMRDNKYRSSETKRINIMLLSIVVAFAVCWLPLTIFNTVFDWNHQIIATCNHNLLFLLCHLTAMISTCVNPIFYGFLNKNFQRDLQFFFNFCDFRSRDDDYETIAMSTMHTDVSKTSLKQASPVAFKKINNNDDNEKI
Put plainly: cAMP FRET reporter (H188) assay at Y1-R: counteraction of adenosine-stimulated cAMP in HEK293 cells. Particulars: HEK cells with H188 biosensor, recombinant human Y1-R and endogenous A2b receptors; 2 μM adenosine; 95% CI in brackets, at least triplicate; read-out: Y1-R agonist action (IC50), decrease of adenosine-raised cAMP. The class given is cell-based.

Series [7] has as its target rat GlucR (Rattus norvegicus, UniProt P30082). Briefly: cAMP FRET reporter (H188) agonism assay at GlucR in HEK293 cells. Format: cell-based. The settings on record: HEK293 cells stably expressing GlucR, H188 FRET biosensor; duplicate independent experiments; read-out: GlucR agonist action (EC50), increase of cytosolic cAMP. The method, then:
Plasmid encoding human Y2-R (I.D. NPYR20TN00) in pcDNA3.1 and human Y1-R (NPYR10TN00) were obtained from the cDNA Resource Center (Bloomsburg, PA). HEK293 cells stably expressing the rat GlucR were obtained from C. […] Adenovirus for transduction of HEK293 cells was generated by a commercial vendor (Vira-Quest, North Liberty, IA) using the shuttle vector pVQAd CMV K-NpA and the H188 plasmid provided by Prof. Kees Jalink.[74]
These assays were conducted as fully described by us previously.[70],[71] Briefly, HEK293 cells transiently or stably expressing recombinant GPCRs were plated at 80% confluency on 96-well clear-bottom assay plates (Costar 3904, Corning, NY). […] Real-time kinetic assays of FRET were performed using a FlexStation 3 microplate reader equipped with excitation and emission light monochromators (Molecular Devices, Sunnyvale, CA). Excitation light was delivered at 435/9 nm (455 nm cutoff), and emitted light was detected at 485 ± 15 nm (cyan fluorescent protein) or 535 ± 15 nm (yellow fluorescent protein).[68],[75] […] The 485/535 emission ratio was calculated for each well, and the mean ± SD values for 12 wells were averaged. […] Prism 8.1 was also used for nonlinear regression analysis to quantify dose–response relationships.

Square brackets hold non-standard residues; d marks the D form. Ends that are not written are not given here.

T1 sequence (P43220 24-463): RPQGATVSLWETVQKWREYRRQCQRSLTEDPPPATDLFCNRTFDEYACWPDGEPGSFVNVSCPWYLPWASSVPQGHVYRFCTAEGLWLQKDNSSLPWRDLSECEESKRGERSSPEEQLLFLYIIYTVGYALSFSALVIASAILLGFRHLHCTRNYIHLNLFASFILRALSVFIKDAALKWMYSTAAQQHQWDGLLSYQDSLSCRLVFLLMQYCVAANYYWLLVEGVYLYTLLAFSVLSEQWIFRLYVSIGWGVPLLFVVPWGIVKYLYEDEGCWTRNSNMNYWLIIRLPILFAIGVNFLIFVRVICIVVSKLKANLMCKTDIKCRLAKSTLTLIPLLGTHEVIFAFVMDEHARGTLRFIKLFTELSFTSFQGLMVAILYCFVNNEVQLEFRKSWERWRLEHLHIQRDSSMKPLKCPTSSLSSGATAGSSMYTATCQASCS
Sequence of rat GlucR (P30082 27-485): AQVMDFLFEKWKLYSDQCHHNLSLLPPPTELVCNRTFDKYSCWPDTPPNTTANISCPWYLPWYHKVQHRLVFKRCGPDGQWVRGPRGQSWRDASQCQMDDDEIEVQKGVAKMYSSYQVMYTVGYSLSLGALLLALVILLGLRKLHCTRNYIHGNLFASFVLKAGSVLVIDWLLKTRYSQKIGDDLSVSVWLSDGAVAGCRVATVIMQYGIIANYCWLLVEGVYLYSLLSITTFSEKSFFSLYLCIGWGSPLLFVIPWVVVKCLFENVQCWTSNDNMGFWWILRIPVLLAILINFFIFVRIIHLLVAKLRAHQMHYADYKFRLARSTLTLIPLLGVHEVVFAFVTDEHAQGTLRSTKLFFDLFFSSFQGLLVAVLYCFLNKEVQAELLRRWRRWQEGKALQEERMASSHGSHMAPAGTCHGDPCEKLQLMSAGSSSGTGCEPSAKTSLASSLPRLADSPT

For the molecule `CC[C@H](C)[C@H](NC(=O)[C@H](Cc1ccccc1)NC(=O)[C@H](CC(C)C)NC(=O)[C@H](CCCNC(=N)N)NC(=O)[C@@H](NC(=O)[C@H](C)NC(=O)[C@H](CCC(=O)O)NC(=O)[C@H](CCC(=O)O)NC(=O)[C@H](CCC(=O)O)NC(=O)[C@H](CCSC)NC(=O)[C@H](CCC(N)=O)NC(=O)[C@H](CCCCN=[N+]=[N-])NC(=O)[C@H](CO)NC(=O)[C@H](CC(C)C)NC(=O)[C@H](CC(=O)O)NC(=O)[C@H](CO)NC(=O)[C@@H](NC(=O)[C@H](Cc1ccccc1)NC(=O)[C@@H](NC(=O)CNC(=O)[C@H](CCC(N)=O)NC(=O)[C@@H](CO)NC(=O)[C@@H](N)Cc1c[nH]cn1)[C@@H](C)O)[C@@H](C)O)C(C)C)C(=O)N[C@@H](CCC(=O)O)C(=O)N[C@@H](Cc1c[nH]c2ccccc12)C(=O)N[C@@H](CC(C)C)C(=O)N[C@@H](CCCCN)C(=O)N[C@@H](CC(N)=O)C(=O)N[C@@H](CCCNC(=N)N)C(=O)N[C@@H](Cc1c[nH]cn1)C(=O)N[C@@H](Cc1ccc(O)cc1)C(=O)N[C@@H](CC(C)C)C(=O)N[C@@H](CC(N)=O)C(=O)N[C@@H](CC(C)C)C(=O)N[C@H](C(=O)N[C@H](C(=O)N[C@@H](CCCNC(=N)N)C(=O)N[C@@H](CCC(N)=O)C(=O)N[C@@H](CCCNC(=N)N)C(=O)N[C@@H](Cc1ccc(O)cc1)C(N)=O)[C@@H](C)O)C(C)C` [EP40], in series [1], the “hill (competition binding at GLP-1R)” value is “–0.96”.
Turning to “H[dS]QGTFTSDLSKQMEEEAVRLFIEWLKNGGPSRHYLNLVTRQRY-NH2 [EP44]”, the dissociation constant (Kd) in series [2] came to 0.12 nM. The “hill (competition binding at GLP-1R)” value in series [1] is listed as “–1.56”. Also, in series [3] (comparison of EC50 values), the “increased GLP-1R potency over GEP44” value is listed as about 30%.
In the case of `CC[C@H](C)[C@H](NC(=O)[C@H](Cc1ccccc1)NC(=O)[C@H](CCC(=O)O)NC(=O)[C@H](CCCNC(=N)N)NC(=O)[C@@H](NC(=O)[C@H](C)NC(=O)[C@H](CCC(=O)O)NC(=O)[C@H](CCC(=O)O)NC(=O)[C@H](CCC(=O)O)NC(=O)[C@H](CC(C)C)NC(=O)[C@H](Cc1ccc(O)cc1)NC(=O)[C@H](CCCCN=[N+]=[N-])NC(=O)[C@H](CO)NC(=O)[C@H](CC(C)C)NC(=O)[C@H](CC(=O)O)NC(=O)[C@H](CO)NC(=O)[C@@H](NC(=O)[C@H](Cc1ccccc1)NC(=O)[C@@H](NC(=O)CNC(=O)[C@H](CCC(N)=O)NC(=O)[C@@H](CO)NC(=O)[C@@H](N)Cc1c[nH]cn1)[C@@H](C)O)[C@@H](C)O)C(C)C)C(=O)N[C@@H](C)C(=O)N[C@@H](Cc1c[nH]c2ccccc12)C(=O)N[C@@H](CC(C)C)C(=O)N[C@@H](CCCCN)C(=O)N[C@@H](CC(N)=O)C(=O)NCC(=O)NCC(=O)N1CCC[C@H]1C(=O)N[C@@H](CO)C(=O)N[C@@H](CCCNC(=N)N)C(=O)N[C@@H](Cc1c[nH]cn1)C(=O)N[C@@H](Cc1ccc(O)cc1)C(=O)N[C@@H](CC(C)C)C(=O)N[C@@H](CC(N)=O)C(=O)N[C@@H](CC(C)C)C(=O)N[C@H](C(=O)N[C@H](C(=O)N[C@@H](CCCNC(=N)N)C(=O)N[C@@H](CCC(N)=O)C(=O)N[C@@H](CCCNC(=N)N)C(=O)N[C@@H](Cc1ccc(O)cc1)C(N)=O)[C@@H](C)O)C(C)C` [GEP44], in series [4], the “CLlnt, intrinsic clearance in rat liver microsomes” value is given as 32.5 (1.18) μL/min/mg peptide. The IC50 turned out to be 10 nM in series [5]; 113 nM in series [1] (nine concentrations 1 pM to 1 μM, range in brackets, read-out: IC50, competition binding at GLP-1R using red fluorescent GLP-1); 27 nM in series [6]. The EC50 is 0.33 nM in series [3] (HEK cells expressing human GLP-1R and cAMP biosensor H188, FRET, SES buffer pH 7.4, nonlinear regression, 95% CI in brackets, at least triplicate independent data sets, read-out: GLP-1R agonist action (EC50), increase of cytosolic cAMP); over 3000 nM in series [7].

A word on the Kd: it is the equilibrium constant for the complex coming apart. The low end stands for a tighter complex, the high end for a looser complex. The term IC50 denotes the concentration that gives 50% inhibition. In general, EC50 refers to the concentration that produces a half-maximal response.
